# Assay results from patent publication US20170049725A9, “COMBINATION CANCER TREATMENT” (WISCONSIN ALUMNI RESEARCH FOUNDATION, priority 2014, published 2017).
# Entries after “also recorded” stand apart in the source; their conditions may differ.
# How the values were obtained:
# [1] = system: metastatic breast cancer cells; details: cited from earlier work
# GILM2 cells = assay: Crystal violet cell survival assay; details: for cytotoxicity of agent alone (cell confluence of surviving cells): metformin 5 mM or agonist 1.5 μg/ml alone
# Experimental: (§1) Top panel: representative images.
# (§2) Crystal violet cell survival assay: Cells were seeded overnight on 6-well plates (3×10^5 cells/well). […] Surviving cells were fixed and stained with crystal violet as described in the art. The percentage of cell confluence was determined using NIH Image J software.
# [2] = system: transformed MCF-10A-RasV12 cells; assay: Crystal violet cell survival assay; format: cell-based, Human; details: metformin 5 mM 48 hours preincubation
# Experimental: as §1, §2
# [3] = system: untransformed MCF-10A-Vector cells; assay: Crystal violet cell survival assay; format: cell-based, Human; details: metformin 5 mM
# Experimental: as §1, §2
# [4] = system: GILM2-mCherry mammary tumors; assay: Orthotopic model of metastatic triple-negative breast cancer; format: in vivo, female NSG mice; details: NSG mice; TRAIL 10 mg/kg i.p. daily for two weeks; metformin 250 mg/mL in drinking water; alone or combined
# Experimental: GILM2-mCherry cells (1×10^6) were injected intraductally into both 4th mammary glands of female NOD scid IL2 receptor γ chain knockout (NSG) mice. Mice were randomized into 4 groups (10 mice per group): vehicle, TRAIL alone (10 mg/kg i.p. daily for two weeks), metformin alone (250 mg/mL in drinking water), or the combination of these doses of metformin and TRAIL. Mice were treated with metformin beginning three weeks after tumor inoculation and throughout the study; TRAIL treatment was initiated 3.5 weeks after tumor cell inoculation.
# To determine whether metformin augments the antitumor effects of TRAIL in an orthotopic model of metastatic triple-negative breast cancer, female NSG mice bearing established GILM2-mCherry mammary tumors were treated with vehicle, metformin alone, TRAIL alone or the combination of metformin and TRAIL.
# [5] = system: DU145 prostate carcinoma cells; assay: MTS cell viability assay
# Experimental: (§5) Human GILM2, HT29 and DU145 carcinoma cells were untreated or preincubated with metformin (MF, 5 mM) for 48 hours and then treated with TRAIL (1.5 μg/ml), mapatumumab (1.5 μg/ml), or lexatumumab (1.5 μg/ml) for an additional 24 hours. Cell viability was determined by MTS assay and expressed as fold-change relative to untreated controls. *P<0.05, **P<0.01 or ***P<0.001 versus controls.
# (§6) Cell viability assay: An MTS cell viability assay was performed as known in the art. Briefly, cells were plated overnight in 96-well plates (3×10^3 cells/well). Cells were then untreated or preincubated with metformin (5 mM) for 48 hours before adding lexatumumab (1.5 μg/ml), mapatumumab (1.5 μg/ml) or TRAIL (1.5 μg/ml). Cell viability was assessed 24 hours later. Cell viability was determined in triplicate wells and expressed as the fold-change relative to untreated controls.
# [6] = system: caspase-3 and PARP in MCF-10A-Vector cells; assay: Immunoblotting of caspase activation (procaspase-3, PARP); format: cell-based, Human; details: metformin 5 mM 48 hours, then TRAIL 1.5 μg/ml 16 hours
# TRAIL-R1 on GILM2 cells = assay: Cell surface expression of TRAIL receptors by flow cytometry; format: cell-based, Human; details: 5 mM metformin for 72 hours
# Experimental: GILM2 cells were grown in control media or media containing 5 mM metformin for 72 hours, incubated with control IgG, TRAIL-R1 or TRAIL-R2 mAb, and analyzed by flow cytometry.
# To determine whether metformin enhances the cell surface expression of TRAIL receptors in cancer cells, GILM2 cells were treated with metformin for 72 hours, and the cell surface expression of TRAIL-R2 and TRAIL-R1 was determined by flow cytometry.
# [7] = system: XIAP in GILM2 breast cancer cells; assay: Immunoblot of XIAP expression; format: cell-based, Human; details: 5 mM metformin for 72 hours
# Experimental: (§3) Immunoblot of XIAP expression in MDA-MB-231, GILM2 and MDA-MB-468 breast cancer cell lines grown in control media (V) or media containing 5 mM metformin (MF) for 72 hours.
# (§4) Without being held to theory, it was postulated that metformin might sensitize cancer cells to TRAIL by downregulating XIAP.
# HT29 colon cancer cells = assay: MTS cell viability assay
# Experimental: as §5, §6
# [8] = system: caspase-3 and PARP in HT29 carcinoma cells; assay: Immunoblotting of caspase activation (procaspase-3, PARP); format: cell-based, Human; details: metformin 5 mM 48 hours, then TRAIL 1.5 μg/ml 16 hours
# [9] = system: XIAP in MDA-MB-468 breast cancer cells; assay: Immunoblot of XIAP expression; format: cell-based; details: 5 mM metformin for 72 hours
# Experimental: as §3, §4
# [10] = system: XIAP in MDA-MB-231 breast cancer cells; assay: Immunoblot of XIAP expression; format: cell-based; details: 5 mM metformin for 72 hours
# Experimental: as §3, §4
# [11] = system: TRAIL-R1 mRNA in GILM2 cells; assay: TRAIL receptor mRNA levels by real-time PCR; format: cell-based, Human; details: 5 mM metformin for 72 hours, normalized to control media
# Experimental: GILM2 breast cancer cells were cultured in control media or media containing 5 mM metformin (MF) for 72 hours, and total RNA was then isolated. TRAIL-R2 and TRAIL-R1 mRNA levels were measured by real-time PCR and normalized to expression in GILM2 cells grown in control media.
# To determine whether metformin sensitizes cancer cells to TRAIL by increasing the expression of its proapoptotic receptors (TRAIL-R1 and TRAIL-R2), GILM2 cells were treated with metformin for 72 hours, and then TRAIL receptor mRNA levels were measured by real-time PCR.
# HT29 cells = assay: Crystal violet cell survival assay; format: cell-based, Human
# Excerpt: as §1
# DU145 cells = assay: Crystal violet cell survival assay; format: cell-based, Human
# Excerpt: as §1
# [12] = system: untransformed MCF-10A-Vector cells; assay: MTS cell viability assay; format: cell-based, Human; details: metformin 5 mM or agonist 1.5 μg/ml alone
# Experimental: (§7) Untransformed MCF-10A-Vector and transformed MCF-10A-RasV12 cells were untreated or preincubated with metformin (MF, 5 mM) for 48 hours and then treated with TRAIL (1.5 μg/ml), mapatumumab (1.5 μg/ml), or lexatumumab (1.5 μg/ml) for an additional 24 hours. Cell viability was determined by MTS assay and expressed as fold-change relative to untreated controls. **P<0.01 or ***P<0.001 versus controls.
# as §6
# [13] = system: caspase-3 and PARP in DU145 carcinoma cells; assay: Immunoblotting of caspase activation (procaspase-3, PARP); format: cell-based, Human; details: metformin 5 mM 48 hours, then TRAIL 1.5 μg/ml 16 hours
# [14] = system: caspase-3 and PARP in MCF-10A-RasV12 cells; assay: as above; format: cell-based, Human; details: metformin 5 mM 48 hours, then TRAIL 1.5 μg/ml 16 hours
# [15] = system: transformed MCF-10A-RasV12 cells; assay: MTS cell viability assay; format: cell-based, Human
# Experimental: as §7, §6
# [16] = system: caspase-3 and PARP in GILM2 carcinoma cells; assay: Immunoblotting of caspase activation (procaspase-3, PARP); format: cell-based, Human; details: metformin 5 mM 48 hours, then TRAIL 1.5 μg/ml 16 hours
# [17] = system: GILM2 breast carcinoma cells; assay: MTS cell viability assay
# Experimental: as §5, §6
# [18] = metformin 5 mM 48 hours preincubation, then TRAIL 1.5 μg/ml 24 hours
# [19] = metformin 5 mM 48 hours preincubation, then lexatumumab 1.5 μg/ml 24 hours
# [20] = metformin 5 mM 48 hours preincubation, then mapatumumab 1.5 μg/ml 24 hours
# [21] = metformin 5 mM or agonist 1.5 μg/ml alone
compound,measurement,setting,value
lexatumumab: fully human IgG1 agonistic monoclonal antibody that binds TRAIL-R2/DR5,"sensitivity to apoptosis induction, compared with mapatumumab",[1],more sensitive
same,cytotoxicity of agent alone (cell confluence of surviving cells),GILM2 cells,modest cell death
"CN(C)C(=N)NC(=N)N [metformin, N,N-dimethylimidodicarbonimidic diamide]",sensitization to TRAIL (cell survival),[2]; then TRAIL 1.5 μg/ml 24 hours,dramatically sensitized
same,sensitization to lexatumumab (cell survival),[2]; then lexatumumab 1.5 μg/ml 24 hours,dramatically sensitized
same,effect on mapatumumab-induced cell death,[2]; then mapatumumab 1.5 μg/ml 24 hours,only a modest effect
same,effect of metformin alone on cell survival,[3],little effect
same,lung metastases,[4],no significant effect
same,mammary tumor growth,[4],no significant effect
same,sensitivity to TRAIL (cell viability),[5]; [18],enhanced the sensitivity
same,sensitivity to lexatumumab (cell viability),[5]; [19],enhanced the sensitivity
same,cytotoxicity of mapatumumab (cell viability),[5]; [20],did not augment the cytotoxicity
same,"effect on cell viability, agent individually",[5]; [21],modest or no significant effect
same,TRAIL-induced proteolytic cleavage of PARP,[6],little effect
same,TRAIL-induced proteolytic cleavage of procaspase-3,[6],little effect
same,cell surface expression of TRAIL-R1,TRAIL-R1 on GILM2 cells,did not significantly affect
same,XIAP protein levels,[7],reduction
same,sensitivity to TRAIL (cell viability),HT29 colon cancer cells; [18],enhanced the sensitivity
same,sensitivity to lexatumumab (cell viability),HT29 colon cancer cells; [19],enhanced the sensitivity
same,cytotoxicity of mapatumumab (cell viability),HT29 colon cancer cells; [20],did not augment the cytotoxicity
same,"effect on cell viability, agent individually",HT29 colon cancer cells; [21],modest or no significant effect
same,TRAIL-induced proteolysis of the caspase substrate PARP,[8],increased
same,TRAIL-induced proteolytic activation of procaspase-3,[8],augmented
same,cytotoxicity of TRAIL (cell confluence of surviving cells),GILM2 cells; [18],increased the cytoxicity
same,cytotoxicity of lexatumumab (cell confluence of surviving cells),GILM2 cells; [19],increased the cytoxicity
same,cytotoxicity of mapatumumab (cell confluence of surviving cells),GILM2 cells; [20],increased the cytoxicity; also recorded: more modest
same,cytotoxicity of agent alone (cell confluence of surviving cells),GILM2 cells,modest cytoxicity
same,XIAP protein levels,[9],reduction
same,XIAP protein levels,[10],reduction
same,TRAIL-R1 mRNA levels,[11],modestly reduced
same,cytotoxicity of TRAIL (cell confluence of surviving cells),HT29 cells; [18],increased the cytoxicity
same,cytotoxicity of lexatumumab (cell confluence of surviving cells),HT29 cells; [19],increased the cytoxicity
same,cytotoxicity of mapatumumab (cell confluence of surviving cells),HT29 cells; [20],increased the cytoxicity; also recorded: more modest
same,cytotoxicity of agent alone (cell confluence of surviving cells),HT29 cells; [21],more robust cytotoxicity
same,cytotoxicity of TRAIL (cell confluence of surviving cells),"DU145 cells; metformin 5 mM 48 hours preincubation, then TRAIL 1.5 μg/ml 48 hours",increased the cytoxicity
same,cytotoxicity of lexatumumab (cell confluence of surviving cells),"DU145 cells; metformin 5 mM 48 hours preincubation, then lexatumumab 1.5 μg/ml 48 hours",increased the cytoxicity
same,cytotoxicity of mapatumumab (cell confluence of surviving cells),"DU145 cells; metformin 5 mM 48 hours preincubation, then mapatumumab 1.5 μg/ml 48 hours",increased the cytoxicity
same,cytotoxicity of agent alone (cell confluence of surviving cells),DU145 cells; [21],modest cytoxicity
same,"effect on cell viability, agent individually",[12],largely resistant
same,TRAIL-induced proteolysis of the caspase substrate PARP,[13],increased
same,TRAIL-induced proteolytic activation of procaspase-3,[13],augmented
same,TRAIL-induced proteolytic cleavage of PARP,[14],enhanced
same,TRAIL-induced proteolytic cleavage of procaspase-3,[14],enhanced
same,sensitivity to TRAIL (cell viability),[15]; [18],enhanced the sensitivity
same,sensitivity to lexatumumab (cell viability),[15]; [19],enhanced the sensitivity
same,sensitivity to mapatumumab (cell viability),[15]; [20],not
same,"effect on cell viability, agent individually",[15]; [21],only modest effects
same,TRAIL-induced proteolysis of the caspase substrate PARP,[16],increased
same,TRAIL-induced proteolytic activation of procaspase-3,[16],augmented
same,sensitivity to TRAIL (cell viability),[17]; [18],enhanced the sensitivity
same,sensitivity to lexatumumab (cell viability),[17]; [19],enhanced the sensitivity
same,cytotoxicity of mapatumumab (cell viability),[17]; [20],did not augment the cytotoxicity
same,"effect on cell viability, agent individually",[17]; [21],modest or no significant effect
"TRAIL: Soluble recombinant TRAIL corresponding to amino acids 95-281 of the protein, expressed in bacteria, His-tagged",lung metastases,[4],inhibited
same,mammary tumor growth,[4],inhibited
